The chains are these.
B1: Antistasin: "a potent inhibitor of blood coagulation factor Xa from the Mexican leech, Haementeria officinalis" (protein, UniProt P15358 18-136, looked up)
Antistasin: QGPFGPGCEEAGCPEGSACNIITDRCTCSGVRCRMHCPHGFQRSRYGCEFCKCRLEPMKATCDISECPEGMMCSRLTNKCDCKIDINCRKTCPNGLKRDKLGCEYCECRPKRKLIPRLS

For one assay, the system named is clot lysis / acute reocclusion.
Assay: not given
Particulars: dog; cited from earlier work.
“rTAP: "recombinant tick anticoagulant peptide (rTAP)", one of the "protein or polypeptide factor Xa inhibitors" (YNRLCIKPRDWIDECDSNEGGERAYFRNGKGGCDSFWICPEDHTGADYYSSYRDCFNACI; UniProt P17726 1-60, looked up)”: the acute reocclusion entry is given as “prevent acute reocclusion” and the “recombinant tissue plasminogen activator mediated clot lysis” value was “accelerate the recombinant tissue plasminogen activator mediated clot lysis”.

Another assay relates to arterial and venous thrombosis.
Assay: not given
Particulars: various models of arterial and venous thrombosis; cited from earlier work.
In the case of B1, the antithrombotic activity result is on record as “displays antithrombotic activity”.

For another assay, the target named is T1, human factor Xa (Homo sapiens, UniProt P00742).
T1 construct: purchased Enzyme Research Laboratories
T1 sequence (P00742 235-488 limits assumed): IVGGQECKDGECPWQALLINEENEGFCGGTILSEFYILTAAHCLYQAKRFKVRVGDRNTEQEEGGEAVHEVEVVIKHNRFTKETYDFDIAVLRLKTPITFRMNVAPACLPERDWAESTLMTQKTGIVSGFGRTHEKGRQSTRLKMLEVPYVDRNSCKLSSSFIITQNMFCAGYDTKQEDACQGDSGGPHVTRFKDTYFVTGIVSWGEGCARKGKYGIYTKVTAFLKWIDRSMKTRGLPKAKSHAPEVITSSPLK
T1 sequence (P00742 41-179 partner limits assumed): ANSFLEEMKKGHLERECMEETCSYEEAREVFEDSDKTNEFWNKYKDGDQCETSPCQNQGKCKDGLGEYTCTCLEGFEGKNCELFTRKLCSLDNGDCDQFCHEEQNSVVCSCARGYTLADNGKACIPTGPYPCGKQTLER
The assay is described as follows: Determination of Factor Xa IC50 (cleavage of chromogenic substrate S2765). It counts as biochemical. The following applies: 3 pM factor Xa; compound at 1 uM. As for the experimental part:
A. Determination of Factor Xa IC50
These concentrations were achieved by diluting a 21.087 μM stock solution of factor Xa in the appropriate amount of a buffer comprising 10 […], 0.1% BSA, pH 7.4 (HBSA buffer). Accordingly, 5 μL of the compound to be tested in DMSO (2% final) is added to the factor Xa/buffer solution and incubated for 60 minutes at room temperature.
The IC50 is determined by monitoring the increase in […] at 390 nm exicitation, 460 nm emission, with a 455 nm cutoff, in a fluorometric plate reader.
As for `N#Cc1ccc(NC(=O)C2CCCN2C(=O)Nc2ccc(Cl)cc2)cc1` (stereo not drawn), the “Fxa 3 PM % Inhibition at 1 uM” value is listed as 16.58%. For the molecule `O=C(Nc1ccc(-c2nnn[nH]2)cc1)C1CCCN1C(=O)Nc1ccc(Cl)cc1` (stereo not drawn), the “Fxa 3 PM % Inhibition at 1 uM” value is listed as 36.64%. Same read-out and setting: under `NS(=O)(=O)c1ccccc1-c1ccc(NC(=O)[C@@H]2CCCN2C(=O)Nc2ccc(Cl)cc2)c(F)c1` stands 46.5%.

Still in this assay, the particulars now being: 3 pM factor Xa; compound at 4 uM.
Take `NS(=O)(=O)c1ccccc1-c1ccc(NC(=O)C2CCCN2C(=O)Nc2ccccc2F)c(F)c1` (stereo not drawn): the “Fxa 3 PM % Inhibition at 4 uM” value was 37.21%. Still for that read-out and setting: next, `CC(=O)c1cccc(NC(=O)N2CCCC2C(=O)Nc2ccc(-c3ccccc3S(N)(=O)=O)cc2F)c1` (stereo not drawn): 21.04%; `NS(=O)(=O)c1ccccc1-c1ccc(NC(=O)C2CCCN2C(=O)Nc2ccc(F)c(Cl)c2)c(F)c1` (stereo not drawn): 41.07%; `NS(=O)(=O)c1ccccc1-c1ccc(NC(=O)C2CCCN2C(=O)Nc2cccc(Cl)c2)c(F)c1` (stereo not drawn): 55.97%.

As to `NS(=O)(=O)c1ccccc1-c1ccc(NC(=O)C2CCCN2C(=O)Nc2ccc(Cl)c(Cl)c2)c(F)c1` (stereo not drawn), the “Fxa 3 PM % Inhibition at 4 uM” value is given as 41.71%. For `Cc1cc(Cl)ccc1NC(=O)N1CCCC1C(=O)Nc1ccc(-c2ccccc2S(N)(=O)=O)cc1F` (stereo not drawn), the “Fxa 3 PM % Inhibition at 4 uM” value worked out at 38.88%. Consider `N#Cc1ccc(NC(=O)N2CCCC2C(=O)Nc2ccc(-c3ccccc3S(N)(=O)=O)cc2F)cc1` (stereo not drawn), for which the “Fxa 3 PM % Inhibition at 4 uM” value was found to be 51.86%. Still for that read-out and setting: next, `CN(C)c1ccc(NC(=O)N2CCCC2C(=O)Nc2ccc(-c3ccccc3S(N)(=O)=O)cc2F)cc1` (stereo not drawn): 19.93%. Turning to `CCc1ccc(NC(=O)N2CCCC2C(=O)Nc2ccc(-c3ccccc3S(N)(=O)=O)cc2F)cc1` (stereo not drawn), the “Fxa 3 PM % Inhibition at 4 uM” value is given as 38.14%. Consider `Cc1ccc(Cl)cc1NC(=O)N1CCCC1C(=O)Nc1ccc(-c2ccccc2S(N)(=O)=O)cc1F` (stereo not drawn), for which the “Fxa 3 PM % Inhibition at 4 uM” value was found to be 19.84%. Regarding `CC(C)c1ccc(NC(=O)N2CCCC2C(=O)Nc2ccc(-c3ccccc3S(N)(=O)=O)cc2F)cc1` (stereo not drawn), the “Fxa 3 PM % Inhibition at 4 uM” value was 19.22%. Same read-out and setting: under `COc1cccc(NC(=O)N2CCCC2C(=O)Nc2ccc(-c3ccccc3S(N)(=O)=O)cc2F)c1` (stereo not drawn) stands 36.21%. On to `NS(=O)(=O)c1ccccc1-c1ccc(NC(=O)C2CCCN2C(=O)Nc2ccc(C(F)(F)F)cc2)c(F)c1` (stereo not drawn), for which the “Fxa 3 PM % Inhibition at 4 uM” value is 25.1%. Still for that read-out and setting: under `NS(=O)(=O)c1ccccc1-c1ccc(NC(=O)C2CCCN2C(=O)Nc2cccc(C(F)(F)F)c2)c(F)c1` (stereo not drawn) stands 21.61%.

The same assay, now with this note: 1 h, read-out: % at 1 uM (printed in column FXA 30 pM IC50); 30 pM factor Xa; compound at 1 uM.
As for `O=C(Nc1ccc(-c2cncnc2)cc1)[C@H]1C[C@@H](O)CN1C(=O)Nc1ccc(Cl)cc1`, the inhibition at 1 µM was 32%.

As for `O=C(Nc1ccc(NC(=O)[C@H]2C[C@@H](O)CN2C(=O)Nc2ccc(Cl)cc2)cc1)C1CCCC1`, the inhibition at 1 µM came out at 36%.

Consider `O=C(Nc1ccc(-n2ccnn2)cc1)[C@H]1C[C@@H](O)CN1C(=O)Nc1ccc(Cl)cc1`, for which the inhibition at 1 µM worked out at 26%.

For `CO[C@@H]1C[C@H](C(=O)Nc2ccc(N3CCC3=O)cc2F)N(C(=O)Nc2ccc(Cl)cn2)C1`, the inhibition at 1 µM was determined as 54%.

The test system of the next assay is arterial thrombosis.
Assay: not given
The following applies: canine coronary artery electrolytic lesion model; cited from earlier work.
Regarding “rTAP: "recombinant tick anticoagulant peptide (rTAP)", one of the "protein or polypeptide factor Xa inhibitors" (YNRLCIKPRDWIDECDSNEGGERAYFRNGKGGCDSFWICPEDHTGADYYSSYRDCFNACI; UniProt P17726 1-60, looked up)”, the “thrombus mass and time to occlusion” value is “reduce thrombus mass and time to occlusion”.

Another assay relates to thrombus formation.
Assay: not given
The following applies: rat arteriovenous shunt and venous stasis models; cited from earlier work.
For the molecule `CC(=N)N1CC[C@H](Oc2ccc([C@H](Cc3ccc4ccc(C(=N)N)cc4c3)C(=O)O)cc2)C1` [DX9065a], the “inhibition of thrombus formation” value was “inhibition of thrombus formation was achieved at doses that had little effect on APTT”.

The next assay relates to venous thrombosis.
Assay: not given
Particulars: rabbit model of venous thrombosis; cited from earlier work.
For the molecule “rTAP: "recombinant tick anticoagulant peptide (rTAP)", one of the "protein or polypeptide factor Xa inhibitors" (YNRLCIKPRDWIDECDSNEGGERAYFRNGKGGCDSFWICPEDHTGADYYSSYRDCFNACI; UniProt P17726 1-60, looked up)”, the fibrin deposition result was “reduce fibrin deposition”.

(Values after patent publication US7030141B2, “Inhibitors of factor Xa and other serine proteases involved in the coagulation cascade” (priority 2001, dated 2006).)
